Where “and” joins values, the source holds several entries; their conditions need not be identical. Identical values can stand only once. Toxic doses and inconclusive results are not listed. No stated cut-off is given here; in the data, active means T/C of 150% or more; inactive means T/C below 125%.
Test system: L1210 leukemia ip in BDF1 mice, survival T/C
Test: NCI In Vivo Anticancer Drug Screen. Data for tumor model L1210 Leukemia (intraperitoneal) in B6D2F1 (BDF1) mice
Settings: endpoint: mean survival time, higher = longer survival
Procedure, shortened: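 Tumor was transplanted into mice, which were then dosed with test compound or vehicle alone. Survival was recorded for each group, and the treated figure was expressed relative to the control figure.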

[1] = dose: 5.0 mg/kg/injection, schedule: Q01DX001 (ip), vehicle: saline
[2] = dose: 10.0 mg/kg/injection, schedule: Q01DX001 (ip), vehicle: saline
[3] = dose: 20.0 mg/kg/injection, schedule: Q01DX001 (ip), vehicle: saline
[4] = dose: 100.0 mg/kg/injection, schedule: Q04DX003 (ip), vehicle: saline with Tween-80
[5] = dose: 200.0 mg/kg/injection, schedule: Q04DX003 (ip), vehicle: saline with Tween-80
[6] = dose: 100.0 mg/kg/injection, schedule: Q04DX003 (ip), vehicle: saline
[7] = dose: 75.0 mg/kg/injection, schedule: Q01DX001 (ip), vehicle: saline
[8] = dose: 150.0 mg/kg/injection, schedule: Q01DX001 (ip), vehicle: saline
[9] = dose: 100.0 mg/kg/injection, schedule: Q01DX009 (ip), vehicle: Klucel (hydroxypropylcellulose) (HPC)
[10] = dose: 100.0 mg/kg/injection, schedule: Q04DX003 (ip), vehicle: Klucel (hydroxypropylcellulose) (HPC)
[11] = dose: 200.0 mg/kg/injection, schedule: Q01DX009 (ip), vehicle: Klucel (hydroxypropylcellulose) (HPC)
[12] = dose: 200.0 mg/kg/injection, schedule: Q04DX003 (ip), vehicle: Klucel (hydroxypropylcellulose) (HPC)
[13] = dose: 400.0 mg/kg/injection, schedule: Q04DX003 (ip), vehicle: Klucel (hydroxypropylcellulose) (HPC)
[14] = dose: 200.0 mg/kg/injection, schedule: Q04DX003 (ip), vehicle: saline
[15] = dose: 400.0 mg/kg/injection, schedule: Q04DX003 (ip), vehicle: saline
[16] = dose: 100.0 mg/kg/injection, schedule: Q04DX002 (ip), vehicle: Klucel (hydroxypropylcellulose) (HPC)
[17] = dose: 200.0 mg/kg/injection, schedule: Q04DX002 (ip), vehicle: Klucel (hydroxypropylcellulose) (HPC)
[18] = dose: 400.0 mg/kg/injection, schedule: Q04DX002 (ip), vehicle: Klucel (hydroxypropylcellulose) (HPC)

Measured: T/C

CCC1([N+](=O)[O-])COP(N)(=O)OC1 (stereo unspecified)
inactive: [1] 105 % of control | [2] 107 % of control | [3] 124 % of control | dose: 40.0 mg/kg/injection, schedule: Q01DX001 (ip), vehicle: saline 100 % of control | dose: 80.0 mg/kg/injection, schedule: Q01DX001 (ip), vehicle: saline 96 % of control

O=C(O)c1ccc2c(c1Cl)C(=O)c1ccccc1C2=O
inactive: [4] 98 % of control | [5] 93 % of control

COC(=O)C1=CC(C(=O)OC)C(C(=O)OC)N2C=CSC2=C1 (stereo unspecified)
inactive: dose: 25.0 mg/kg/injection, schedule: Q04DX003 (ip), vehicle: saline 93 % of control | dose: 50.0 mg/kg/injection, schedule: Q04DX003 (ip), vehicle: saline 100 % of control | [6] 96 % of control

CCC(CCl)NC(CC(C)C)CC(C)C (stereo unspecified)
inactive: [7] 93 % of control and 98 % of control | [8] 96 % of control and 107 % of control

ClCCOCCOCCOCCCl
inactive: dose: 75.0 mg/kg/injection, schedule: Q01DX009 (ip), vehicle: saline with Tween-80 97 % of control | [4] 97 % of control | dose: 150.0 mg/kg/injection, schedule: Q01DX009 (ip), vehicle: saline with Tween-80 93 % of control | [5] 106 % of control | dose: 300.0 mg/kg/injection, schedule: Q01DX009 (ip), vehicle: saline with Tween-80 93 % of control | dose: 400.0 mg/kg/injection, schedule: Q04DX003 (ip), vehicle: saline with Tween-80 102 % of control

Cc1cccc2nc3nc(Cl)c(Cl)nc3n12
inactive: dose: 75.0 mg/kg/injection, schedule: Q01DX001 (ip), vehicle: acetone 98 % of control | dose: 150.0 mg/kg/injection, schedule: Q01DX001 (ip), vehicle: acetone 101 % of control | dose: 300.0 mg/kg/injection, schedule: Q01DX001 (ip), vehicle: acetone 92 % of control

C=C(C)Cc1cnc(SCc2ccccc2)[nH]c1=O
inactive: [9] 93 % of control | [10] 97 % of control | [11] 91 % of control | [12] 103 % of control | dose: 400.0 mg/kg/injection, schedule: Q01DX009 (ip), vehicle: Klucel (hydroxypropylcellulose) (HPC) 94 % of control | [13] 104 % of control

CCn1nnnc1N
inactive: [6] 91 % of control | [14] 94 % of control | [15] 102 % of control

CNNC(=O)CCc1ccccc1
inactive: dose: 10.0 mg/kg/injection, schedule: Q01DX009 (ip), vehicle: saline 103 % of control | dose: 20.0 mg/kg/injection, schedule: Q01DX009 (ip), vehicle: saline 93 % of control | dose: 40.0 mg/kg/injection, schedule: Q01DX009 (ip), vehicle: saline 90 % of control

NCC1OC(OC2C(CO)OC(OC3C(O)C(N)CC(N)C3OC3OC(CN)C(O)C(O)C3N)C2O)C(N)C(O)C1O (stereo unspecified)
inactive: dose: 37.5 mg/kg/injection, schedule: Q01DX001 (ip), vehicle: saline 100 % of control | [7] 105 % of control | [8] 111 % of control

O=C(O)CCSSCCC(=O)O
inactive: dose: 50.0 mg/kg/injection, schedule: Q04DX003 (ip), vehicle: Klucel (hydroxypropylcellulose) (HPC) 103 % of control | [9] 95 % of control | [10] 86 % of control | [11] 87 % of control | [12] 86 % of control

CCOC(=O)c1ccc2c(c1)Cc1c-2cc(Br)c(N)c1Br
inactive: dose: 100.0 mg/kg/injection, schedule: Q01DX001 (ip), vehicle: carboxymethylcellulose (CMC) 100 % of control | dose: 200.0 mg/kg/injection, schedule: Q01DX001 (ip), vehicle: carboxymethylcellulose (CMC) 102 % of control | dose: 400.0 mg/kg/injection, schedule: Q01DX001 (ip), vehicle: carboxymethylcellulose (CMC) 91 % of control

CN(C)C(CCc1ccccc1)C(=O)O (stereo unspecified)
inactive: dose: 100.0 mg/kg/injection, schedule: Q01DX009 (ip), vehicle: saline sonified 102 % of control | [6] 102 % of control | dose: 200.0 mg/kg/injection, schedule: Q01DX009 (ip), vehicle: saline sonified 95 % of control | [14] 109 % of control | dose: 400.0 mg/kg/injection, schedule: Q01DX009 (ip), vehicle: saline sonified 101 % of control | [15] 109 % of control

c1ccc(-c2nc3ccccc3c3ccccc23)cc1
inactive: [10] 101 % of control | [12] 103 % of control | [13] 106 % of control

COc1cc(Cl)ccc1NC(=O)Oc1ccc2c(C)cc(=O)oc2c1
inactive: [9] 100 % of control

CN(C)C(=O)Sc1ccc2ccc3ccccc3c2c1
inactive: dose: 50.0 mg/kg/injection, schedule: Q04DX002 (ip), vehicle: saline with Tween-80 108 % of control | dose: 100.0 mg/kg/injection, schedule: Q04DX002 (ip), vehicle: saline with Tween-80 104 % of control | dose: 200.0 mg/kg/injection, schedule: Q04DX002 (ip), vehicle: saline with Tween-80 108 % of control

CCCOP(=O)(OCCC)C(OC(=O)C(C)C)=C(C)C
inactive: [4] 97 % of control | [5] 94 % of control

Cc1ccc(NC(=S)Nc2ccc(C(C)C)cc2)c(C)c1
inactive: [16] 118 % of control | [17] 103 % of control | [18] 100 % of control

OC(c1ccccc1)(c1ccccc1)C1c2ccccc2-c2[nH]c3ccccc3c21 (stereo unspecified)
inactive: dose: 200.0 mg/kg/injection, schedule: Q01DX001 (ip), vehicle: saline with Tween-80 91 % of control

CC1(C)C2CCC(CCO)C1C2 (stereo unspecified)
inactive: dose: 12.5 mg/kg/injection, schedule: Q04DX003 (ip), vehicle: saline with Tween-80 92 % of control | dose: 25.0 mg/kg/injection, schedule: Q01DX009 (ip), vehicle: saline 96 % of control | dose: 25.0 mg/kg/injection, schedule: Q04DX003 (ip), vehicle: saline with Tween-80 88 % of control | dose: 50.0 mg/kg/injection, schedule: Q01DX009 (ip), vehicle: saline 92 % of control | dose: 50.0 mg/kg/injection, schedule: Q04DX003 (ip), vehicle: saline with Tween-80 95 % of control | dose: 100.0 mg/kg/injection, schedule: Q01DX009 (ip), vehicle: saline 88 % of control | [4] 92 % of control

O=C(CBr)c1ccncc1
inactive: [1] 103 % of control | [2] 103 % of control | [3] 94 % of control

CCOC(=O)C(Cc1c[nH]c2ccccc12)NC(C)=O (stereo unspecified)
inactive: [16] 106 % of control | [17] 100 % of control | [18] 95 % of control

CCOc1ccc(C(=O)CCN2CCOCC2)cc1
inactive: dose: 100.0 mg/kg/injection, schedule: Q01DX001 (ip), vehicle: saline 100 % of control | dose: 200.0 mg/kg/injection, schedule: Q01DX001 (ip), vehicle: saline 118 % of control

O=C(O)C(O)CBr (stereo unspecified)
inactive: dose: 12.5 mg/kg/injection, schedule: Q01DX009 (ip), vehicle: saline with Tween-80 103 % of control | dose: 25.0 mg/kg/injection, schedule: Q01DX009 (ip), vehicle: saline with Tween-80 95 % of control | dose: 50.0 mg/kg/injection, schedule: Q01DX009 (ip), vehicle: saline with Tween-80 98 % of control
